ChEMBL document CHEMBL4393743, “Anti-tumor activity evaluation of novel tubulin and HDAC dual-targeting inhibitors” (Bioorg Med Chem Lett, 2019)
pIC50: −log10 of the molar value. Calls of active or inactive are those of the source. The calls are words filed in the database; no cut-off is given here.

Assays:
A549 [1] = test: Induction of apoptosis in human A549 cells assessed as early apoptotic cells at 1 uM incubated for 72 hrs by Annexin V-FITC/propidium iodide-staining based flow cytometric analysis (reference value: 1.8%); type: functional
A549 [2] = test: Induction of cell cycle arrest in human A549 cells assessed as accumulation at G0/G1 phase at 0.3 uM incubated for 36 hrs by propidium iodide staining based flow cytometry (reference value: 72.51%); type: functional
A549 [3] = test: Induction of apoptosis in human A549 cells assessed as necrotic cells at 0.3 uM incubated for 72 hrs by Annexin V-FITC/propidium iodide-staining based flow cytometric analysis (reference value: 2.76%); type: functional
A549 [4] = test: Induction of cell cycle arrest in human A549 cells assessed as accumulation at G2/M phase at 0.3 uM incubated for 36 hrs by propidium iodide staining based flow cytometry (reference value: 10.83%); type: functional
SGC-7901 = test: Antiproliferative activity against human SGC7901 cells assessed as cell growth inhibition incubated for 72 hrs by MTT assay; type: functional, cell-based; details: SGC-7901, 72 h
NCI-H460 = test: Antiproliferative activity against human NCI-H460 cells assessed as cell growth inhibition incubated for 72 hrs by MTT assay; type: functional, cell-based; details: NCI-H460, 72 h
Histone deacetylase 1 = Histone deacetylase 1 (Homo sapiens, UniProt Q13547); test: Inhibition of HDAC1 (unknown origin) using Boc-Lys(Ac)-AMC as substrate incubated for 60 mins by fluorescence assay
Sequence of Histone deacetylase 1 (Q13547 whole entry): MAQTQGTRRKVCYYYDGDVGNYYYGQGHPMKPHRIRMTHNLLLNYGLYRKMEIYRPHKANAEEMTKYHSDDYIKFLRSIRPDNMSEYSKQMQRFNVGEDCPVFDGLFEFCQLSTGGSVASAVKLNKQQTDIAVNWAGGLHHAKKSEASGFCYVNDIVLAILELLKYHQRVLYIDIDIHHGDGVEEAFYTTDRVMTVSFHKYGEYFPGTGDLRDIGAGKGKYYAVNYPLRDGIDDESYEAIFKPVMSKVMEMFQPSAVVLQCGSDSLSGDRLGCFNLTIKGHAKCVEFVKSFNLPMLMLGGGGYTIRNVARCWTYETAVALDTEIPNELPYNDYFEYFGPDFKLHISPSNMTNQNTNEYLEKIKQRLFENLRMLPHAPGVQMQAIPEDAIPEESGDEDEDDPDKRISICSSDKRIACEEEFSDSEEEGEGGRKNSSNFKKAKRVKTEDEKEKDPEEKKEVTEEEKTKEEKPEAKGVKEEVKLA

A549 [5] = test: Induction of cell cycle arrest in human A549 cells assessed as accumulation at G0/G1 phase at 10 uM incubated for 36 hrs by propidium iodide staining based flow cytometry (reference value: 72.51%); type: functional
Tubulin = test: Inhibition of tubulin polymerization (unknown origin) by spectrophotometric method; type: protein-complex assay, Homo sapiens
A549 [6] = test: Antiproliferative activity against human A549 cells assessed as cell growth inhibition incubated for 72 hrs by MTT assay; type: functional, cell-based; details: A549, 72 h
A549 [7] = test: Induction of cell cycle arrest in human A549 cells assessed as accumulation at G0/G1 phase at 3 uM incubated for 36 hrs by propidium iodide staining based flow cytometry (reference value: 72.51%); type: functional
LoVo = test: Antiproliferative activity against human LoVo cells assessed as cell growth inhibition incubated for 72 hrs by MTT assay; type: functional, cell-based
A549 [8] = test: Induction of apoptosis in human A549 cells assessed as early apoptotic cells at 0.3 uM incubated for 72 hrs by Annexin V-FITC/propidium iodide-staining based flow cytometric analysis (reference value: 1.8%); type: functional
A549 [9] = test: Induction of cell cycle arrest in human A549 cells assessed as accumulation at G2/M phase at 10 uM incubated for 36 hrs by propidium iodide staining based flow cytometry (reference value: 10.83%); type: functional
A549 [10] = test: Induction of apoptosis in human A549 cells assessed as live cells at 0.3 uM incubated for 72 hrs by Annexin V-FITC/propidium iodide-staining based flow cytometric analysis (reference value: 89.8%); type: functional
A549 [11] = test: Induction of cell cycle arrest in human A549 cells assessed as accumulation at S phase at 10 uM incubated for 36 hrs by propidium iodide staining based flow cytometry (reference value: 16.66%); type: functional
BGC-823 = test: Antiproliferative activity against human BGC823 cells assessed as cell growth inhibition incubated for 72 hrs by MTT assay; type: functional, cell-based; details: BGC-823, 72 h
A549 [12] = test: Induction of cell cycle arrest in human A549 cells assessed as accumulation at S phase at 0.1 uM incubated for 36 hrs by propidium iodide staining based flow cytometry (reference value: 16.66%); type: functional
A549 [13] = test: Induction of cell cycle arrest in human A549 cells assessed as accumulation at S phase at 1 uM incubated for 36 hrs by propidium iodide staining based flow cytometry (reference value: 16.66%); type: functional
A549 [14] = test: Induction of apoptosis in human A549 cells assessed as live cells at 1 uM incubated for 72 hrs by Annexin V-FITC/propidium iodide-staining based flow cytometric analysis (reference value: 89.8%); type: functional
A549 [15] = test: Induction of apoptosis in human A549 cells assessed as early apoptotic cells at 0.1 uM incubated for 72 hrs by Annexin V-FITC/propidium iodide-staining based flow cytometric analysis (reference value: 1.8%); type: functional
A549 [16] = test: Induction of apoptosis in human A549 cells assessed as necrotic cells at 1 uM incubated for 72 hrs by Annexin V-FITC/propidium iodide-staining based flow cytometric analysis (reference value: 2.76%); type: functional
A549 [17] = test: Induction of apoptosis in human A549 cells incubated for 72 hrs by Annexin V-FITC/propidium iodide-staining based flow cytometric analysis; type: functional, cell-based
A549 [18] = test: Induction of cell cycle arrest in human A549 cells assessed as accumulation at S phase at 0.3 uM incubated for 36 hrs by propidium iodide staining based flow cytometry (reference value: 16.66%); type: functional
A549 [19] = test: Induction of apoptosis in human A549 cells assessed as late apoptotic cells at 0.1 uM incubated for 72 hrs by Annexin V-FITC/propidium iodide-staining based flow cytometric analysis (reference value: 5.69%); type: functional
A549 [20] = test: Antimigratory activity in human A549 cells at 5 to 10 uM incubated for 12 hrs in presence of mitomycin by inverted microscopic-based wound healing assay; type: functional, cell-based
A549 [21] = test: Induction of apoptosis in human A549 cells assessed as early apoptotic cells at 10 uM incubated for 72 hrs by Annexin V-FITC/propidium iodide-staining based flow cytometric analysis (reference value: 1.8%); type: functional
A549 [22] = test: Induction of apoptosis in human A549 cells assessed as necrotic cells at 10 uM incubated for 72 hrs by Annexin V-FITC/propidium iodide-staining based flow cytometric analysis (reference value: 2.76%); type: functional
A549 [23] = test: Induction of cell cycle arrest in human A549 cells assessed as accumulation at S phase at 3 uM incubated for 36 hrs by propidium iodide staining based flow cytometry (reference value: 16.66%); type: functional
A549 [24] = test: Induction of cell cycle arrest in human A549 cells assessed as accumulation at G0/G1 phase at 0.1 uM incubated for 36 hrs by propidium iodide staining based flow cytometry (reference value: 72.51%); type: functional

pIC50 (SGC-7901): 5.97 | pIC50 (NCI-H460): 5.53 | pIC50 (Histone deacetylase 1): 6.00 | pIC50 (Tubulin): 4.26 | pIC50 (A549 [6]): 6.26 | pIC50 (LoVo): 5.31 | pIC50 (BGC-823): 5.62
Compound: COc1ccc(/C=C(\C)C(=O)c2cc(OC)c(OC)c(OC)c2)cc1OCCCC(=O)NO
Activity (A549 [1]): 6.6% | Activity (A549 [2]): 46.23% | Activity (A549 [3]): 2.19% | Activity (A549 [4]): 13.81% | Activity (A549 [5]): 1.57% | Activity (A549 [7]): 9.13% | Activity (A549 [8]): 7.73% | Activity (A549 [9]): 81.88% | Activity (A549 [10]): 79.9% | Activity (A549 [11]): 16.55% | Activity (A549 [12]): 22.09% | Activity (A549 [13]): 20.54% | Activity (A549 [14]): 58.9% | Activity (A549 [15]): 4.25% | Activity (A549 [16]): 8.05% | Activity (A549 [17]): Dose-dependent effect | Activity (A549 [18]): 39.96% | Activity (A549 [19]): 9.41% | Activity (A549 [20]): Active | Activity (A549 [21]): 8.81% | Activity (A549 [22]): 8% | Activity (A549 [23]): 10.18% | Activity (A549 [24]): 68.44%
